In experiment [1] the target is T1, Gonadotropin-releasing hormone receptor (Rattus norvegicus, UniProt P30969).
T1 sequence (P30969 whole entry): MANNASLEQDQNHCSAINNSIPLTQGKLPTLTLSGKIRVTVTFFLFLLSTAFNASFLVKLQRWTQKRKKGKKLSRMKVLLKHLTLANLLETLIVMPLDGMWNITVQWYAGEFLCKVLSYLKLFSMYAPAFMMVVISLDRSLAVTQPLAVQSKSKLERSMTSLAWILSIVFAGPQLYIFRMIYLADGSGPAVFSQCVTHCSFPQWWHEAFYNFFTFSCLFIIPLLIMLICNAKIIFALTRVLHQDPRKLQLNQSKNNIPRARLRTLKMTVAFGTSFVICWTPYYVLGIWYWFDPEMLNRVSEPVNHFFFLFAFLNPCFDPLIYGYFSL
Description: Affinity for rat gonadotrophin releasing hormone (GnRH) receptor using HEK293 cells transfected with rat Gonadotropin-releasing hormone receptor. Format: cell-based. Conditions: hek293.

The species named for experiment [2] is Rattus norvegicus. Description: Antiovulatory potency at 25 ug/rat expressed as rats ovulating by total no. of rats (2/4). The class given is functional.
The species named for experiment [3] is Rattus norvegicus. Description: Antiovulatory potency at 10 ug/rat expressed as rats ovulating by total no. of rats (0/5). Format: functional.
For experiment [4], the species on record is Rattus norvegicus. Put plainly: Antiovulatory potency at 10 ug/rat expressed as rats ovulating by total no. of rats (4/4). The class given is functional.
For experiment [5], the species on record is Rattus norvegicus. Put plainly: Antiovulatory potency at 25 ug/rat expressed as rats ovulating by total no. of rats (4/8). Format: functional.
For experiment [6], the species on record is Rattus norvegicus. Description: Antiovulatory potency at 5 ug/rat expressed as rats ovulating by total no. of rats (3/20). The class given is functional.
The species entered for experiment [7] is Rattus norvegicus. Description: Antiovulatory potency at 10 ug/rat expressed as rats ovulating by total no. of rats (0/10). Format: functional.
For experiment [8], the species on record is Rattus norvegicus. Put plainly: Antiovulatory potency at 5 ug/rat expressed as rats ovulating by total no. of rats (2/3). The class given is functional.
The species named for experiment [9] is Rattus norvegicus. Description: Antiovulatory potency at 50 ug/rat expressed as rats ovulating by total no. of rats (3/3). The class given is functional.
For experiment [10], the species on record is Rattus norvegicus. Description: Antiovulatory potency at 25 ug/rat expressed as rats ovulating by total no. of rats (3/8). The class given is functional.
The species entered for experiment [11] is Rattus norvegicus. Description: Antiovulatory potency at 50 ug/rat expressed as rats ovulating by total no. of rats (0/3). The class given is functional.
Experiment [12] addresses T1, Gonadotropin-releasing hormone receptor. Description: Affinity for rat Gonadotropin-releasing hormone receptor membrane evaluated using HEK293 cells transfected with rat Gonadotropin-releasing hormone receptor. Format: cell-based.
For experiment [13], the species on record is Rattus norvegicus. Put plainly: Antiovulatory potency at 10 ug/rat expressed as rats ovulating by total no. of rats (4/5). Format: functional.
For experiment [14], the species on record is Rattus norvegicus. Description: Antiovulatory potency at 10 ug/rat expressed as rats ovulating by total no. of rats (1/6). The class given is functional.
Experiment [15] is filed under the species Rattus norvegicus. Put plainly: Antiovulatory potency at 25 ug/rat expressed as rats ovulating by total no. of rats (0/3). Format: functional.
The species named for experiment [16] is Rattus norvegicus. Description: Antiovulatory potency at 5 ug/rat expressed as rats ovulating by total no. of rats (2/8). Format: functional.
The species entered for experiment [17] is Rattus norvegicus. Put plainly: Antiovulatory potency at 250 ug/rat expressed as rats ovulating by total no. of rats (5/6). The class given is functional.
For experiment [18], the species on record is Rattus norvegicus. Put plainly: Antiovulatory potency at 50 ug/rat expressed as rats ovulating by total no. of rats (5/5). The class given is functional.

The structures appear in SMILES notation.

`CC(=O)N[C@@H]1CCC(=O)N[C@H](C)C(=O)NCC[C@H]2NC(=O)[C@@H](CC(=O)NC[C@H](C(N)=O)NC(=O)[C@H]3CCCN3C(=O)[C@H](CCCN=C(N)N)NC(=O)[C@@H](CC(C)C)NC(=O)[C@@H](Cc3ccc4ccccc4c3)NC2=O)NC(=O)[C@@H](Cc2c[nH]c3ccccc23)NC(=O)[C@H](Cc2ccc(Cl)cc2)NC1=O`: in experiment [1], affinity was put at a Ki of 0.22 nM. The Ovulating rats came out at 2 in [2] and 0 in experiment [3].

For the compound `CC(=O)N[C@@H]1CCC(=O)NCCC[C@H]2NC(=O)[C@@H](CC(=O)NC[C@H](C(N)=O)NC(=O)[C@H]3CCCN3C(=O)[C@H](CCCN=C(N)N)NC(=O)[C@@H](CC(C)C)NC(=O)[C@@H](Cc3ccc4ccccc4c3)NC2=O)NC(=O)[C@@H](Cc2c[nH]c3ccccc23)NC(=O)[C@H](Cc2ccc(Cl)cc2)NC1=O`, in [1], the affinity corresponds to a Ki of 0.86 nM. Also, the Ovulating rats in experiment [4] and in experiment [5] was 4 each time.

On to `CC(=O)N[C@H](Cc1ccc2ccccc2c1)C(=O)N[C@H](Cc1ccc(F)cc1)C(=O)N[C@H](Cc1c[nH]c2ccccc12)C(=O)N[C@H]1CC(=O)NC[C@@H](C(N)=O)NC(=O)[C@@H]2CCCN2C(=O)[C@@H]2CCCCNC(=O)CC[C@H](NC1=O)C(=O)N[C@H](CCCN=C(N)N)C(=O)N[C@@H](CC(C)C)C(=O)N2`, for which the values for the Ovulating rats in [6] and in [7] were 3 and 0, respectively.

For `CC(=O)N[C@@H]1CCC(=O)NCC(=O)NCC[C@H]2NC(=O)[C@@H](CC(=O)NC[C@H](C(N)=O)NC(=O)[C@H]3CCCN3C(=O)[C@H](CCCN=C(N)N)NC(=O)[C@@H](CC(C)C)NC(=O)[C@@H](CCCN=C(N)N)NC2=O)NC(=O)[C@@H](Cc2c[nH]c3ccccc23)NC(=O)[C@H](Cc2ccc(Cl)cc2)NC1=O`, the affinity in [1], expressed as Ki, was 17 nM. In addition, the Ovulating rats amounted to 2 in [8] and 3 in experiment [9].

In the case of `CC(=O)N[C@@H]1CCC(=O)NCCCC[C@H]2NC(=O)[C@@H](CC(=O)NC[C@H](C(N)=O)NC(=O)[C@H]3CCCN3C(=O)[C@H](CCCN=C(N)N)NC(=O)[C@@H](CC(C)C)NC(=O)[C@@H](Cc3ccc4ccccc4c3)NC2=O)NC(=O)[C@@H](Cc2c[nH]c3ccccc23)NC(=O)[C@H](Cc2ccc(Cl)cc2)NC1=O`, the results for the Ovulating rats in [10], in [11] and in experiment [13] were 3, 0 and 4, respectively. In addition, the Ki (usually a measure of affinity in units of concentration, obtained from inhibition or displacement) in experiment [12] came to 0.26 nM.

As to `CC(=O)N[C@H](Cc1ccc2ccccc2c1)C(=O)N[C@H](Cc1ccc(F)cc1)C(=O)N[C@H](Cc1cccnc1)C(=O)N[C@H]1CC(=O)NC[C@@H](C(N)=O)NC(=O)[C@@H]2CCCN2C(=O)[C@@H]2CCNC(=O)CNC(=O)CC[C@H](NC1=O)C(=O)N[C@H](CCCN=C(N)N)C(=O)N[C@@H](CC(C)C)C(=O)N2`, the figures for the Ovulating rats in experiment [14], in [15] and in [16] were 1, 0 and 2, respectively.

For the compound `CC(=O)N[C@H](Cc1ccc2ccccc2c1)C(=O)N[C@H](Cc1ccc(Cl)cc1)C(=O)N[C@@H]1CSSC[C@@H](C(=O)N2CCC[C@H]2C(=O)N[C@H](C)C(N)=O)NC(=O)[C@H](CC(C)C)NC(=O)[C@@H](Cc2ccc3ccccc3c2)NC(=O)[C@H](CCCN=C(N)N)NC(=O)[C@H](C)NC1=O`, the Ovulating rats in [17] and in [18] was 5 each time.

The record behind these values is ChEMBL document CHEMBL1132959, “Design of potent dicyclic (1-5/4-10) gonadotropin releasing hormone (GnRH) antagonists” (J Med Chem, 2000).
